This is an account of results in PubChem BioAssay AID588774 (The Scripps Research Institute Molecular Screening Center, 2011).

Experiment [1] is described as follows: competitive ABPP of pPAFAH versus proteome hydrolases – biochemical, gel-based, FP-Rh fluorescence, complex proteome, SAR compounds, selectivity assay for pPAFAH inhibitor project, SAR follow-up (AID 588774).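 For inhibition: 0% = DMSO-only band intensity and 100% = blank gel background.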 The following applies: at 10 µM.
For a further experiment, the system named is ABHD3. The experiment is described as above. Conditions: at 10 µM, stronger effect = higher value.
The target of a further experiment is ABHD4 (UniProt Q8VD66). The experiment is described as above. The following applies: stronger effect = higher value.
ABHD4, sequence (Q8VD66 whole entry, looked up): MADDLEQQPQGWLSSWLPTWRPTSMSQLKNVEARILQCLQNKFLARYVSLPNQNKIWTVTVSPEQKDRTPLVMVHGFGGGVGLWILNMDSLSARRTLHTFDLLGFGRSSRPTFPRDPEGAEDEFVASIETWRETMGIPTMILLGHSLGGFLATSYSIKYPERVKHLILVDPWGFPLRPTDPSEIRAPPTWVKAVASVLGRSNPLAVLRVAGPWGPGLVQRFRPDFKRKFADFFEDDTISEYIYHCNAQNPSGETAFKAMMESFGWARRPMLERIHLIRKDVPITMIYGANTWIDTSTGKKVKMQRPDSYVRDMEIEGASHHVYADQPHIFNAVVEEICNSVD
For a further experiment, the system named is ABHD6. Described as above. Conditions: stronger effect = higher value.
In another experiment the test system is FAAH. The description is as above. The following applies: stronger effect = higher value.
The next experiment has as its system LYPLA1. The experiment is described as above. Conditions: stronger effect = higher value.
Another experiment has as its system LYPLA2. The experiment is described as above. The following applies: stronger effect = higher value.
The subject of another experiment is MW 30 kDa. Described as above. Conditions: stronger effect = higher value.
The target of experiment [2] is Monoglyceride lipase (Mus musculus) (UniProt O35678). Described as above. The following applies: MAGL, stronger effect = higher value.
Monoglyceride lipase (Mus musculus), sequence (O35678 whole entry, looked up): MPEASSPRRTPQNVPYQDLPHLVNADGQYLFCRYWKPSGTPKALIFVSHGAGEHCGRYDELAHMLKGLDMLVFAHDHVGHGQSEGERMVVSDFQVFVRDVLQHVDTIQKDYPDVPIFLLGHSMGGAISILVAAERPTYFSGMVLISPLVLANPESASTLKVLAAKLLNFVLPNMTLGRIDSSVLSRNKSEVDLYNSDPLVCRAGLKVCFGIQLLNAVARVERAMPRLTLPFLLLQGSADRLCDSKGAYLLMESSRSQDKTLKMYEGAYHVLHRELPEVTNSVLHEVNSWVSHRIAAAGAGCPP
Experiment [3] addresses Platelet-activating factor acetylhydrolase (Mus musculus) (UniProt Q60963). The experiment is described as above. The following applies: pPAFAH, stronger effect = higher value.
The next experiment has as its system pPAFAH. The experiment is described as above. Conditions: anti-targets inhibited, at 10 µM.

Each structure is given as a SMILES string. Calls of active or inactive are those of the source.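 Rule for the calls: active = target enzyme inhibited at least 50% at a set dose, and selective over every off-target enzyme by a set factor; inactive = weaker inhibition or too little selectivity.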

Platelet-activating factor acetylhydrolase (Mus musculus), sequence (Q60963 whole entry, looked up): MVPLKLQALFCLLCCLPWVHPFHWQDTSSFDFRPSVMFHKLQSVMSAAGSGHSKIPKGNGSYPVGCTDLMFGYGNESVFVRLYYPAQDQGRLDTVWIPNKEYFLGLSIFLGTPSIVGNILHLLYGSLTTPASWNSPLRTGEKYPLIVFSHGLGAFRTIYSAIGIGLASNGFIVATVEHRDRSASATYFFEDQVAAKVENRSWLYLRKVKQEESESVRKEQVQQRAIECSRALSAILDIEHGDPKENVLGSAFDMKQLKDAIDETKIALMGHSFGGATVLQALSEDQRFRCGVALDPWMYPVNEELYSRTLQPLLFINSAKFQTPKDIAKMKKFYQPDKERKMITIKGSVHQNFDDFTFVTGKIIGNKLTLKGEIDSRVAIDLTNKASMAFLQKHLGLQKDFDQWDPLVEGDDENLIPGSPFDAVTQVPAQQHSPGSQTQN

With `O=C(Oc1noc2cc(Cl)ccc12)N1CCCCC1`, the anti-target count in [1] (ABHD3, anti-targets inhibited) was found to be 2; in experiment [1] (ABHD4, anti-targets inhibited), 2; in [1] (ABHD6, anti-targets inhibited) it was 2; in [1] (FAAH, anti-targets inhibited), 2; in experiment [1] (LYPLA1, anti-targets inhibited), 2; in [1] (LYPLA2, anti-targets inhibited) it was 2. For the same compound, the anti-target count in [1] (MAGL, anti-targets inhibited) was determined as 2; in the experiment with pPAFAH, 2. Besides, the inhibition was 0% (inactive) with ABHD3; 0% (inactive) at ABHD4 (at 10 µM); 46% (inactive) in the experiment on ABHD6 (at 10 µM); 20% in the experiment with ABHD6 (inhibition, at 0.1 µM); 38% in the experiment with ABHD6 (inhibition, at 1 µM); 100% in the experiment with FAAH (at 10 µM). Besides, the inhibition in the experiment with FAAH (inhibition, at 0.1 µM) was 96%; in the experiment on FAAH (inhibition, at 1 µM) it was 100%; with LYPLA1 (at 10 µM), 0% (inactive); with LYPLA2 (at 10 µM) it was 0% (inactive); in the experiment on MW 30 kDa (at 1 µM), 40%; in experiment [2] (at 10 µM), 23% (inactive). Besides, the inhibition is 13% in experiment [2] (inhibition, at 1 µM); 100% in [3] (at 10 µM); 82% in experiment [3] (inhibition, at 0.1 µM); 85% in experiment [3] (inhibition, at 1 µM).

With `O=C(Oc1noc2cc(Cl)ccc12)N1CCOCC1`, the anti-target count in [1] (ABHD3, anti-targets inhibited) came to 3; in experiment [1] (ABHD4, anti-targets inhibited), 3; in experiment [1] (ABHD6, anti-targets inhibited), 3; in experiment [1] (FAAH, anti-targets inhibited), 3; in experiment [1] (LYPLA1, anti-targets inhibited), 3; in experiment [1] (LYPLA2, anti-targets inhibited), 3. Also, the anti-target count was determined as 3 in [1] (MAGL, anti-targets inhibited) and 3 in the experiment with pPAFAH. Moreover, the inhibition with ABHD3 is 0% (inactive); at ABHD4 (at 10 µM), 0% (inactive); in the experiment on ABHD6 (at 10 µM), 66% (inactive); with ABHD6 (inhibition, at 0.1 µM), 27%; in the experiment with ABHD6 (inhibition, at 1 µM), 46%; in the experiment on FAAH (at 10 µM) it was 100%. Besides, the inhibition is 85% in the experiment on FAAH (inhibition, at 0.1 µM); 94% in the experiment with FAAH (inhibition, at 1 µM); 0% (inactive) with LYPLA1 (at 10 µM); 0% (inactive) in the experiment with LYPLA2 (at 10 µM); 24% in the experiment with MW 30 kDa (at 0.1 µM); 39% in the experiment with MW 30 kDa (at 1 µM). In addition, the inhibition in [2] (at 10 µM) was 26% (inactive); in experiment [3] (at 10 µM) it was 100%; in experiment [3] (inhibition, at 0.1 µM), 96%; in experiment [3] (inhibition, at 1 µM), 97%.

With `Cc1cc(N2CCN(C(=O)n3oc4cc(Cl)ccc4c3=O)CC2)c2ccccc2n1`, the anti-target count is 3 in experiment [1] (ABHD3, anti-targets inhibited); 3 in [1] (ABHD4, anti-targets inhibited); 3 in [1] (ABHD6, anti-targets inhibited); 3 in experiment [1] (FAAH, anti-targets inhibited); 3 in [1] (LYPLA1, anti-targets inhibited); 3 in experiment [1] (LYPLA2, anti-targets inhibited). Moreover, the anti-target count in experiment [1] (MAGL, anti-targets inhibited) was found to be 3; in the experiment with pPAFAH, 3. In addition, the inhibition with ABHD3 was 0% (inactive); on ABHD4 (at 10 µM) it was 48% (inactive); at ABHD4 (inhibition, at 0.1 µM) it was 36%; at ABHD4 (inhibition, at 1 µM), 38%; in the experiment with ABHD6 (at 10 µM), 38% (inactive); with ABHD6 (inhibition, at 0.1 µM), 19%. The inhibition in the experiment with ABHD6 (inhibition, at 1 µM) was 32%; in the experiment on FAAH (at 10 µM), 99% (inactive); in the experiment with FAAH (inhibition, at 0.1 µM) it was 39%; in the experiment with FAAH (inhibition, at 1 µM) it was 79%; in the experiment on LYPLA1 (at 10 µM) it was 73% (inactive); with LYPLA1 (inhibition, at 1 µM) it was 13%. The inhibition is 24% (inactive) in the experiment with LYPLA2 (at 10 µM); 3% in the experiment with LYPLA2 (inhibition, at 0.1 µM); 6% in the experiment on LYPLA2 (inhibition, at 1 µM); 97% in experiment [2] (at 10 µM); 54% in [2] (inhibition, at 0.1 µM); 73% in experiment [2] (inhibition, at 1 µM). The inhibition in [3] (at 10 µM) is 99%; in experiment [3] (inhibition, at 0.1 µM) it was 87%; in experiment [3] (inhibition, at 1 µM) it was 87%.

Regarding `Cc1cc(N2CCN(C(=O)Oc3ccc(-c4ccccc4)cc3)CC2)c2ccccc2n1`, the anti-target count in experiment [1] (ABHD3, anti-targets inhibited) turned out to be 0; in experiment [1] (ABHD4, anti-targets inhibited) it was 0; in [1] (ABHD6, anti-targets inhibited), 0; in experiment [1] (FAAH, anti-targets inhibited) it was 0; in experiment [1] (LYPLA1, anti-targets inhibited), 0; in experiment [1] (LYPLA2, anti-targets inhibited), 0. Also, the anti-target count in [1] (MAGL, anti-targets inhibited) is 0; in the experiment with pPAFAH, 0. Moreover, the inhibition in the experiment with ABHD3, at ABHD4 (at 10 µM), in the experiment with ABHD6 (at 10 µM), in the experiment with FAAH (at 10 µM), in the experiment on LYPLA1 (at 10 µM) and with LYPLA2 (at 10 µM) was 0% (inactive) in each case. Besides, the inhibition is 0% (inactive) in experiment [2] (at 10 µM); 100% in experiment [3] (at 10 µM); 66% in experiment [3] (inhibition, at 0.1 µM); 95% in experiment [3] (inhibition, at 1 µM).

On to `Cc1cc(N2CCN(C(=O)Oc3ccc(-c4ccc(Br)cc4)cc3)CC2)c2ccccc2n1`, for which the anti-target count came to 0 in experiment [1] (ABHD3, anti-targets inhibited); 0 in experiment [1] (ABHD4, anti-targets inhibited); 0 in experiment [1] (ABHD6, anti-targets inhibited); 0 in experiment [1] (FAAH, anti-targets inhibited); 0 in experiment [1] (LYPLA1, anti-targets inhibited); 0 in experiment [1] (LYPLA2, anti-targets inhibited). Besides, the anti-target count came to 0 in experiment [1] (MAGL, anti-targets inhibited) and 0 with pPAFAH. The inhibition in the experiment on ABHD3, on ABHD4 (at 10 µM), in the experiment on ABHD6 (at 10 µM), with FAAH (at 10 µM), in the experiment with LYPLA1 (at 10 µM) and with LYPLA2 (at 10 µM) was 0% (inactive) throughout. In addition, the inhibition in experiment [2] (at 10 µM) was 0% (inactive); in [3] (at 10 µM) it was 56% (inactive); in experiment [3] (inhibition, at 0.1 µM), 2%; in [3] (inhibition, at 1 µM), 37%.

On to `Cc1cc(N2CCN(C(=O)Oc3noc4cc(Cl)ccc34)CC2)c2ccccc2n1`, for which the anti-target count was 4 in experiment [1] (ABHD3, anti-targets inhibited); 4 in experiment [1] (ABHD4, anti-targets inhibited); 4 in experiment [1] (ABHD6, anti-targets inhibited); 4 in experiment [1] (FAAH, anti-targets inhibited); 4 in experiment [1] (LYPLA1, anti-targets inhibited); 4 in experiment [1] (LYPLA2, anti-targets inhibited). The anti-target count was determined as 4 in experiment [1] (MAGL, anti-targets inhibited) and 4 with pPAFAH. Also, the inhibition with ABHD3 was 0% (inactive); on ABHD4 (at 10 µM), 0% (inactive); in the experiment with ABHD6 (at 10 µM), 53%; with ABHD6 (inhibition, at 0.1 µM), 53%; with ABHD6 (inhibition, at 1 µM), 53%; with FAAH (at 10 µM), 100%. For the same compound, the inhibition with FAAH (inhibition, at 0.1 µM) is 87%; in the experiment on FAAH (inhibition, at 1 µM) it was 100%; in the experiment on LYPLA1 (at 10 µM), 50% (inactive); in the experiment with LYPLA1 (inhibition, at 0.1 µM), 20%; with LYPLA1 (inhibition, at 1 µM), 25%; with LYPLA2 (at 10 µM), 0% (inactive). Also, the inhibition in [2] (at 10 µM) is 86%; in experiment [2] (inhibition, at 0.1 µM), 79%; in [2] (inhibition, at 1 µM) it was 83%; in experiment [3] (at 10 µM) it was 100%; in experiment [3] (inhibition, at 0.1 µM), 89%; in experiment [3] (inhibition, at 1 µM), 91%.

In the case of `Cc1cc(N2CCN(C(=O)Oc3ccc(C(F)(F)F)cc3)CC2)c2ccccc2n1`, the anti-target count in experiment [1] (ABHD3, anti-targets inhibited) is 1; in experiment [1] (ABHD4, anti-targets inhibited), 1; in experiment [1] (ABHD6, anti-targets inhibited), 1; in experiment [1] (FAAH, anti-targets inhibited), 1; in [1] (LYPLA1, anti-targets inhibited) it was 1; in [1] (LYPLA2, anti-targets inhibited), 1. Besides, the anti-target count in [1] (MAGL, anti-targets inhibited) is 1; with pPAFAH it was 1. Further, the inhibition is 0% (inactive) in the experiment on ABHD3; 72% (inactive) on ABHD4 (at 10 µM); 32% at ABHD4 (inhibition, at 0.1 µM); 39% on ABHD4 (inhibition, at 1 µM); 0% (inactive) in the experiment on ABHD6 (at 10 µM); 0% (inactive) in the experiment with FAAH (at 10 µM). For the same compound, the inhibition in the experiment with LYPLA1 (at 10 µM) was 0% (inactive); with LYPLA2 (at 10 µM), 0% (inactive); in experiment [2] (at 10 µM), 0% (inactive); in [3] (at 10 µM), 93% (inactive); in experiment [3] (inhibition, at 0.1 µM), 46%; in experiment [3] (inhibition, at 1 µM), 87%.

As to `Cc1cc(N2CCN(C(=O)Oc3ccc(C4CCCCC4)cc3)CC2)c2ccccc2n1`, the anti-target count in experiment [1] (ABHD3, anti-targets inhibited) amounted to 0; in [1] (ABHD4, anti-targets inhibited), 0; in [1] (ABHD6, anti-targets inhibited) it was 0; in experiment [1] (FAAH, anti-targets inhibited), 0; in experiment [1] (LYPLA1, anti-targets inhibited) it was 0; in experiment [1] (LYPLA2, anti-targets inhibited), 0. Further, the anti-target count in experiment [1] (MAGL, anti-targets inhibited) came out at 0; in the experiment with pPAFAH, 0. Further, the inhibition in the experiment on ABHD3, at ABHD4 (at 10 µM), with ABHD6 (at 10 µM), with FAAH (at 10 µM), in the experiment with LYPLA1 (at 10 µM) and in the experiment with LYPLA2 (at 10 µM) was 0% (inactive) throughout. The inhibition is 0% (inactive) in experiment [2] (at 10 µM); 95% (inactive) in [3] (at 10 µM); 2% in experiment [3] (inhibition, at 0.1 µM); 63% in experiment [3] (inhibition, at 1 µM).
